These compounds were tested on NF-κB (assay: NF-κB SEAP reporter assay in THP-1-Blue NF-κB cells, Pam3CSK4 stimulated). Details: Table 15; THP-1-Blue cells, 1 ng/ml Pam3CSK4, 24 h; read-out: NF-κB Pam3SCK4 IC50.
Type: cell-based
Experimental: (§1) THP-1-Blue NF-κB cells (InvivoGen) carrying a stable integrated NF-κB-inducible secreted embryonic alkaline phosphatase (SEAP) reporter construct were plated at a concentration of 1×10^5 cells per well. The cells were stimulated with Pam3CSK4 (1 ng/ml) or hIL1B (1 ng/ml). After 10-20 minutes, the cells were then treated with vehicle (DMSO) or serial dilutions of the test compounds (10 doses tested for each test compound, with a […] starting at 1 μM or 3 μM) with a final volume of 200 μL for 24 hours at 37 °C. After 24 hours, the cells were centrifuged and 20 μL supernatant was incubated with 180 μL QUANTI-Blue reagent at 37 °C for 30-60 minutes. The levels of NF-κB-induced was measured in a microplate reader at 620 nm.
as §1, with “1 mM” for “1 μM”, “3 mM)” for “3 μM)”, “200 mL” for “200 μL”, “20 mL” for “20 μL”, “180 mL” for “180 μL”, “NF-κB-induced gene expression were” for “NF-κB-induced was”

Question: How did the IC50 turn out when `COc1cn2ncc(-c3nc(N[C@@H]4CCCNC4)ccc3F)c2nc1C1CC1` [Compound 2, (R)-6-(5-cyclopropyl-6-methoxypyrazolo[1,5-a]pyrimidin-3-yl)-5-fluoro-N-(piperidin-3-yl)pyridin-2-amine] was run?
Answer: Its IC50 is 71 nM.

Question: With `COc1cn2ncc(-c3nc(N[C@@H]4CCCNC4)c(C#N)cc3F)c2nc1C(C)(C)O` [Compound 9, (R)-5-fluoro-6-(5-(2-hydroxypropan-2-yl)-6-methoxypyrazolo[1,5-a]pyrimidin-3-yl)-2-(piperidin-3-ylamino)nicotinonitrile] as the compound, how does the IC50 read?
Answer: The IC50 was 39 nM.

Question: With `COc1cn2ncc(-c3nc(N[C@@H]4CCCNC4)c(F)cc3F)c2nc1C(C)(C)O` [Compound 11, (R)-2-(3-(3,5-difluoro-6-(piperidin-3-ylamino)pyridin-2-yl)-6-methoxypyrazolo[1,5-a]pyrimidin-5-yl)propan-2-ol] as the compound, how does the IC50 read?
Answer: The IC50 was 128 nM.

Question: `COc1cn2ncc(-c3nc(N[C@H]4CNCC[C@@H]4F)c(F)cc3F)c2nc1C1CC1` [Compound 22, 6-(5-cyclopropyl-6-methoxypyrazolo[1,5-a]pyrimidin-3-yl)-3,5-difluoro-N-((3S,4S)-4-fluoropiperidin-3-yl)pyridin-2-amine] was tested. Which IC50 did it give?
Answer: The IC50 was 7 nM.

Question: For `COc1cn2ncc(-c3ccc(F)c(N[C@H]4CNCC[C@@H]4F)n3)c2nc1C1CC1` [Compound 6, 6-(5-cyclopropyl-6-methoxypyrazolo[1,5-a]pyrimidin-3-yl)-3-fluoro-N-((3S,4S)-4-fluoropiperidin-3-yl)pyridin-2-amine], which IC50 is on record?
Answer: Its IC50 is 300 nM.

Question: Which IC50 does the source give for `COc1cn2ncc(-c3nc(N[C@H]4CNC[C@@H]4F)c(F)cc3F)c2nc1C(C)(C)O` [Compound 12, 2-(3-(3,5-difluoro-6-(((3S,4S)-4-fluoropyrrolidin-3-yl)amino)pyridin-2-yl)-6-methoxypyrazolo[1,5-a]pyrimidin-5-yl)propan-2-ol] here?
Answer: Its IC50 is 42 nM.

Question: How did the IC50 turn out when `COc1cn2ncc(-c3cccc(N[C@@H]4CCCNC4)n3)c2nc1C1CC1` [Compound 20, (R)-6-(5-cyclopropyl-6-methoxypyrazolo[1,5-a]pyrimidin-3-yl)-N-(piperidin-3-yl)pyridin-2-amine] was run?
Answer: The IC50 was 441 nM.

Question: Which IC50 does the source give for `COc1cn2ncc(-c3nc(N[C@H]4CNCC[C@@H]4F)ccc3F)c2nc1C1CC1` [Compound 3, 6-(5-cyclopropyl-6-methoxypyrazolo[1,5-a]pyrimidin-3-yl)-5-fluoro-N-((3S,4S)-4-fluoropiperidin-3-yl)pyridin-2-amine] here?
Answer: Its IC50 is 22 nM.

Question: How did the IC50 turn out when `COc1cn2ncc(-c3cccc(N[C@H]4CNC[C@@H]4F)n3)c2nc1C1CC1` [Compound 19, 6-(5-cyclopropyl-6-methoxypyrazolo[1,5-a]pyrimidin-3-yl)-N-((3S,4S)-4-fluoropyrrolidin-3-yl)pyridin-2-amine] was run?
Answer: Its IC50 is 61 nM.

Question: How did the IC50 turn out when `COc1cn2ncc(-c3nc(N[C@H]4CNCC[C@@H]4F)c(F)cc3F)c2nc1C(C)(C)O` [Compound 13, 2-(3-(3,5-difluoro-6-(((3S,4S)-4-fluoropiperidin-3-yl)amino)pyridin-2-yl)-6-methoxypyrazolo[1,5-a]pyrimidin-5-yl)propan-2-ol] was run?
Answer: The IC50 was 99 nM.

Question: For `COc1cn2ncc(-c3nc(N[C@H]4CNCC[C@@H]4F)c(C#N)cc3F)c2nc1C(C)(C)O` [Compound 10, 5-fluoro-2-(((3S,4S)-4-fluoropiperidin-3-yl)amino)-6-(5-(2-hydroxypropan-2-yl)-6-methoxypyrazolo[1,5-a]pyrimidin-3-yl)nicotinonitrile], which IC50 is on record?
Answer: Its IC50 is 22 nM.

Question: With `COc1cn2ncc(-c3cccc(N[C@H]4CNCC[C@@H]4F)n3)c2nc1C1CC1` [Compound 21, 6-(5-cyclopropyl-6-methoxypyrazolo[1,5-a]pyrimidin-3-yl)-N-((3S,4S)-4-fluoropiperidin-3-yl)pyridin-2-amine] as the compound, how does the IC50 read?
Answer: The IC50 was 362 nM.

Same assay, conditions: Table 21; THP-1-Blue cells, 1 ng/ml Pam3CSK4, 24 h; read-out: NF-κB Pam3SCK4 IC50

Question: With `COc1cn2ncc(-c3cncc(N[C@H]4CNCC[C@@H]4F)n3)c2nc1C1CC1` [Compound 12a, 6-(5-cyclopropyl-6-methoxypyrazolo[1,5-a]pyrimidin-3-yl)-N-((3S,4S)-4-fluoropiperidin-3-yl)pyrazin-2-amine] as the compound, how does the IC50 read?
Answer: The IC50 was 83 nM.

Question: How did the IC50 turn out when `COc1cn2ncc(-c3nc(N[C@H]4CNC[C@@H]4F)ncc3F)c2nc1C1CC1` [Compound 13a, 4-(5-cyclopropyl-6-methoxypyrazolo[1,5-a]pyrimidin-3-yl)-5-fluoro-N-((3S,4S)-4-fluoropyrrolidin-3-yl)pyrimidin-2-amine] was run?
Answer: The IC50 was 19 nM.

Question: `COc1cn2ncc(-c3nc(N[C@@H]4CCCNC4)ncc3F)c2nc1C1CC1` [Compound 14a, (R)-4-(5-cyclopropyl-6-methoxypyrazolo[1,5-a]pyrimidin-3-yl)-5-fluoro-N-(piperidin-3-yl)pyrimidin-2-amine] was tested. Which IC50 did it give?
Answer: The IC50 was 15 nM.

Question: `COc1cn2ncc(-c3nc(N[C@H]4CNCC[C@@H]4F)ncc3F)c2nc1C(C)(C)O` [Compound 6a, 2-(3-(5-fluoro-2-(((3S,4S)-4-fluoropiperidin-3-yl)amino)pyrimidin-4-yl)-6-methoxypyrazolo[1,5-a]pyrimidin-5-yl)propan-2-ol] was tested. Which IC50 did it give?
Answer: Its IC50 is 57 nM.

Question: Which IC50 does the source give for `COc1cn2ncc(-c3cncc(N[C@@H]4CCCNC4)n3)c2nc1C1CC1` [Compound 11a, (R)-6-(5-cyclopropyl-6-methoxypyrazolo[1,5-a]pyrimidin-3-yl)-N-(piperidin-3-yl)pyrazin-2-amine] here?
Answer: Its IC50 is 331 nM.

Question: `COc1cn2ncc(-c3ccnc(N[C@H]4CNC[C@@H]4F)n3)c2nc1C1CC1` [Compound 8a, 4-(5-cyclopropyl-6-methoxypyrazolo[1,5-a]pyrimidin-3-yl)-N-((3S,4S)-4-fluoropyrrolidin-3-yl)pyrimidin-2-amine] was tested. Which IC50 did it give?
Answer: Its IC50 is 72 nM.

Question: Which IC50 does the source give for `COc1cn2ncc(-c3ccnc(N[C@H]4CNCC[C@@H]4F)n3)c2nc1C1CC1` [Compound 7a, 4-(5-cyclopropyl-6-methoxypyrazolo[1,5-a]pyrimidin-3-yl)-N-((3S,4S)-4-fluoropiperidin-3-yl)pyrimidin-2-amine] here?
Answer: Its IC50 is 55 nM.

Question: Which IC50 does the source give for `COc1cn2ncc(-c3nc(N[C@H]4CNCC[C@@H]4F)ncc3F)c2nc1C1CC1` [Compound 15a, 4-(5-cyclopropyl-6-methoxypyrazolo[1,5-a]pyrimidin-3-yl)-5-fluoro-N-((3S,4S)-4-fluoropiperidin-3-yl)pyrimidin-2-amine] here?
Answer: The IC50 was 5 nM.
